Reference: patent US20230085307A1, “PYRIDAZINONE COMPOUND AND HERBICIDE” (NISSAN CHEMICAL CORPORATION, priority 2019, published 2023)

Columns and labels:
velvetleaf [1] = test: Test Example 5: herbicidal effect by foliage application, plastic box (Table 20, symbol M); type: in vivo, velvetleaf (Abutilon theophrasti); details: foliage application, three weeks after application
How it was run: (§1)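 Sow seeds spot-wise in sterilized diluvial soil; cover with ~1.5 cm soil. Grow 14 days in greenhouse, 25° C. to 30° C. Spray foliage with emulsion diluted to predetermined amount. Rate effect after 3 weeks.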

barnyard grass [2] = test: Test Example 5: herbicidal effect by foliage application, plastic box (Table 20, symbol H); type: in vivo, barnyard grass (Echinochloa crus-galli); details: foliage application, three weeks after application
How it was run: as §1

wild oat [3] = test: Test Example 5: herbicidal effect by foliage application, plastic box (Table 20, symbol I); type: in vivo, wild oat (Avena fatua); details: foliage application, three weeks after application
How it was run: as §1

chickweed [4] = test: Test Example 4: herbicidal effect by soil treatment (Table 19, symbol P); type: in vivo, common chickweed (Stellaria media)
How it was run: (§2)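 Soil-surface application: an emulsion agent diluted with water to the predetermined dose is sprayed uniformly over seeds lying under roughly 1.5 cm of sterilized diluvial soil. Boxes stay in a greenhouse at 25° C. to 30° C. Three weeks later, each species is graded on previously defined criteria.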

Chinese sprangletop = test: Test Example 3: herbicidal effect by foliage application, Wagner pot (Table 18, symbol D); type: in vivo, chinese sprangletop (Leptochloa chinensis)
How it was run: (§3)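 Plants were sown in alluvial soil held under 0.1–0.5 cm standing water and grown 14 days in a greenhouse at 25–30 °C. An emulsifiable formulation, water-diluted to the set dose, was then sprayed onto the foliage, and effects were scored three weeks later using previously defined criteria.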

lambsquarters [5] = test: Test Example 4: herbicidal effect by soil treatment (Table 19, symbol O); type: in vivo, lambsquarters (Chenopodium album)
How it was run: as §2

windgrass [6] = test: Test Example 4: herbicidal effect by soil treatment (Table 19, symbol L); type: in vivo, windgrass (Apera spica-venti)
How it was run: as §2

chickweed [7] = test: Test Example 5: herbicidal effect by foliage application, plastic box (Table 20, symbol P); type: in vivo, common chickweed (Stellaria media); details: foliage application, three weeks after application
How it was run: as §1

barnyard grass [8] = test: Test Example 3: herbicidal effect by foliage application, Wagner pot (Table 18, symbol H); type: in vivo, barnyard grass (Echinochloa crus-galli)
How it was run: as §3

southern crabgrass [9] = test: Test Example 5: herbicidal effect by foliage application, plastic box (Table 20, symbol F); type: in vivo, southern crabgrass (Digitaria ciliaris); details: foliage application, three weeks after application
How it was run: as §1

rice flat sedge = test: Test Example 3: herbicidal effect by foliage application, Wagner pot (Table 18, symbol E); type: in vivo, rice flat sedge (Cyperus iria)
How it was run: as §3

blackgrass [10] = test: Test Example 5: herbicidal effect by foliage application, plastic box (Table 20, symbol J); type: in vivo, blackgrass (Alopecurus myosuroides); details: foliage application, three weeks after application
How it was run: as §1

lambsquarters [11] = test: Test Example 5: herbicidal effect by foliage application, plastic box (Table 20, symbol O); type: in vivo, lambsquarters (Chenopodium album); details: foliage application, three weeks after application
How it was run: as §1

Italian ryegrass [12] = test: Test Example 4: herbicidal effect by soil treatment (Table 19, symbol K); type: in vivo, Italian ryegrass (Lolium multiflorum)
How it was run: as §2

barnyard grass [13] = test: Test Example 4: herbicidal effect by soil treatment (Table 19, symbol H); type: in vivo, barnyard grass (Echinochloa crus-galli)
How it was run: as §2

Italian ryegrass [14] = test: Test Example 5: herbicidal effect by foliage application, plastic box (Table 20, symbol K); type: in vivo, Italian ryegrass (Lolium multiflorum); details: foliage application, three weeks after application
How it was run: as §1

windgrass [15] = test: Test Example 5: herbicidal effect by foliage application, plastic box (Table 20, symbol L); type: in vivo, windgrass (Apera spica-venti); details: foliage application, three weeks after application
How it was run: as §1

wild oat [16] = test: Test Example 4: herbicidal effect by soil treatment (Table 19, symbol I); type: in vivo, wild oat (Avena fatua)
How it was run: as §2

blackgrass [17] = test: Test Example 4: herbicidal effect by soil treatment (Table 19, symbol J); type: in vivo, blackgrass (Alopecurus myosuroides)
How it was run: as §2

green foxtail [18] = test: Test Example 5: herbicidal effect by foliage application, plastic box (Table 20, symbol G); type: in vivo, green foxtail (Setaria viridis); details: foliage application, three weeks after application
How it was run: as §1

persian speedwell [19] = test: Test Example 5: herbicidal effect by foliage application, plastic box (Table 20, symbol R); type: in vivo, Persian speedwell (Veronica persica); details: foliage application, three weeks after application
How it was run: as §1

southern crabgrass [20] = test: Test Example 4: herbicidal effect by soil treatment (Table 19, symbol F); type: in vivo, southern crabgrass (Digitaria ciliaris)
How it was run: as §2

redroot pigweed [21] = test: Test Example 5: herbicidal effect by foliage application, plastic box (Table 20, symbol N); type: in vivo, redroot pigweed (Amaranthus retroflexus); details: foliage application, three weeks after application
How it was run: as §1

velvetleaf [22] = test: Test Example 4: herbicidal effect by soil treatment (Table 19, symbol M); type: in vivo, velvetleaf (Abutilon theophrasti)
How it was run: as §2

redroot pigweed [23] = test: Test Example 4: herbicidal effect by soil treatment (Table 19, symbol N); type: in vivo, redroot pigweed (Amaranthus retroflexus)
How it was run: as §2

green foxtail [24] = test: Test Example 4: herbicidal effect by soil treatment (Table 19, symbol G); type: in vivo, green foxtail (Setaria viridis)
How it was run: as §2

persian speedwell [25] = test: Test Example 4: herbicidal effect by soil treatment (Table 19, symbol R); type: in vivo, Persian speedwell (Veronica persica)
How it was run: as §2

[26] = amount of applied herbicide 80 g/ha
[27] = amount of applied herbicide 320 g/ha

CCc1nn(C)c(=O)c(-c2c(-c3ccc(C(F)(F)F)cc3)sc3ccc(F)cc23)c1O [2-410]
M: velvetleaf, herbicidal effect grade (velvetleaf [1]; 80 g/ha): 1 (Herbicidal rate of 5% or more and less than 20%)
H: barnyard grass, herbicidal effect grade (barnyard grass [2]; 80 g/ha): 3 (Herbicidal rate of 40% or more and less than 70%)
I: wild oat, herbicidal effect grade (wild oat [3]; 80 g/ha): 0 (Herbicidal rate of 5% or less (almost no effect))
herbicidal effect, P: chickweed (chickweed [4]; [26]): 0 (Herbicidal rate of 5% or less (almost no effect))
herbicidal effect on D: Chinese sprangletop (Chinese sprangletop; [26]): 0 (Herbicidal rate of 5% or less (almost no effect))
herbicidal effect, O: lambsquarters (lambsquarters [5]; [26]): 1 (Herbicidal rate of 5% or more and less than 20%)
herbicidal effect, L: windgrass (windgrass [6]; [26]): 0 (Herbicidal rate of 5% or less (almost no effect))
P: chickweed, herbicidal effect grade (chickweed [7]; 80 g/ha): 4 (Herbicidal rate of 70% or more and less than 90%)
herbicidal effect on H: barnyard grass (barnyard grass [8]; [26]): 4 (Herbicidal rate of 70% or more and less than 90%)
F: southern crabgrass, herbicidal effect grade (southern crabgrass [9]; 80 g/ha): 0 (Herbicidal rate of 5% or less (almost no effect))
herbicidal effect on E: rice flat sedge (rice flat sedge; [26]): 1 (Herbicidal rate of 5% or more and less than 20%)
J: blackgrass, herbicidal effect grade (blackgrass [10]; 80 g/ha): 0 (Herbicidal rate of 5% or less (almost no effect))
O: lambsquarters, herbicidal effect grade (lambsquarters [11]; 80 g/ha): 3 (Herbicidal rate of 40% or more and less than 70%)
herbicidal effect, K: Italian ryegrass (Italian ryegrass [12]; [26]): 0 (Herbicidal rate of 5% or less (almost no effect))
herbicidal effect, H: barnyard grass (barnyard grass [13]; [26]): 0 (Herbicidal rate of 5% or less (almost no effect))
K: Italian ryegrass, herbicidal effect grade (Italian ryegrass [14]; 80 g/ha): 0 (Herbicidal rate of 5% or less (almost no effect))
L: windgrass, herbicidal effect grade (windgrass [15]; 80 g/ha): 0 (Herbicidal rate of 5% or less (almost no effect))
herbicidal effect, I: wild oat (wild oat [16]; [26]): 0 (Herbicidal rate of 5% or less (almost no effect))
herbicidal effect, J: blackgrass (blackgrass [17]; [26]): 0 (Herbicidal rate of 5% or less (almost no effect))
G: green foxtail, herbicidal effect grade (green foxtail [18]; 80 g/ha): 2 (Herbicidal rate of 20% or more and less than 40%)
R: persian speedwell, herbicidal effect grade (persian speedwell [19]; 80 g/ha): 4 (Herbicidal rate of 70% or more and less than 90%)
herbicidal effect, F: southern crabgrass (southern crabgrass [20]; [26]): 0 (Herbicidal rate of 5% or less (almost no effect))
N: redroot pigweed, herbicidal effect grade (redroot pigweed [21]; 80 g/ha): 3 (Herbicidal rate of 40% or more and less than 70%)
herbicidal effect, M: velvetleaf (velvetleaf [22]; [26]): 0 (Herbicidal rate of 5% or less (almost no effect))
herbicidal effect, N: redroot pigweed (redroot pigweed [23]; [26]): 3 (Herbicidal rate of 40% or more and less than 70%)
herbicidal effect, G: green foxtail (green foxtail [24]; [26]): 1 (Herbicidal rate of 5% or more and less than 20%)
herbicidal effect, R: persian speedwell (persian speedwell [25]; [26]): 0 (Herbicidal rate of 5% or less (almost no effect))

CON=C(C)c1ccc(-c2sc3cc(F)ccc3c2-c2c(O)c(C)nn(C)c2=O)cc1 [3-017]
M: velvetleaf, herbicidal effect grade (velvetleaf [1]; 320 g/ha): 3 (Herbicidal rate of 40% or more and less than 70%)
H: barnyard grass, herbicidal effect grade (barnyard grass [2]; 320 g/ha): 2 (Herbicidal rate of 20% or more and less than 40%)
I: wild oat, herbicidal effect grade (wild oat [3]; 320 g/ha): 1 (Herbicidal rate of 5% or more and less than 20%)
herbicidal effect, P: chickweed (chickweed [4]; [27]): 1 (Herbicidal rate of 5% or more and less than 20%)
herbicidal effect on D: Chinese sprangletop (Chinese sprangletop; [27]): 0 (Herbicidal rate of 5% or less (almost no effect))
herbicidal effect, O: lambsquarters (lambsquarters [5]; [27]): 4 (Herbicidal rate of 70% or more and less than 90%)
herbicidal effect, L: windgrass (windgrass [6]; [27]): 0 (Herbicidal rate of 5% or less (almost no effect))
P: chickweed, herbicidal effect grade (chickweed [7]; 320 g/ha): 5 (Herbicidal rate of 90% or more (almost completely withered))
herbicidal effect on H: barnyard grass (barnyard grass [8]; [27]): 3 (Herbicidal rate of 40% or more and less than 70%)
F: southern crabgrass, herbicidal effect grade (southern crabgrass [9]; 320 g/ha): 3 (Herbicidal rate of 40% or more and less than 70%)
herbicidal effect on E: rice flat sedge (rice flat sedge; [27]): 0 (Herbicidal rate of 5% or less (almost no effect))
J: blackgrass, herbicidal effect grade (blackgrass [10]; 320 g/ha): 3 (Herbicidal rate of 40% or more and less than 70%)
O: lambsquarters, herbicidal effect grade (lambsquarters [11]; 320 g/ha): 5 (Herbicidal rate of 90% or more (almost completely withered))
herbicidal effect, K: Italian ryegrass (Italian ryegrass [12]; [27]): 3 (Herbicidal rate of 40% or more and less than 70%)
herbicidal effect, H: barnyard grass (barnyard grass [13]; [27]): 0 (Herbicidal rate of 5% or less (almost no effect))
K: Italian ryegrass, herbicidal effect grade (Italian ryegrass [14]; 320 g/ha): 4 (Herbicidal rate of 70% or more and less than 90%)
L: windgrass, herbicidal effect grade (windgrass [15]; 320 g/ha): 2 (Herbicidal rate of 20% or more and less than 40%)
herbicidal effect, I: wild oat (wild oat [16]; [27]): 0 (Herbicidal rate of 5% or less (almost no effect))
herbicidal effect, J: blackgrass (blackgrass [17]; [27]): 0 (Herbicidal rate of 5% or less (almost no effect))
G: green foxtail, herbicidal effect grade (green foxtail [18]; 320 g/ha): 5 (Herbicidal rate of 90% or more (almost completely withered))
R: persian speedwell, herbicidal effect grade (persian speedwell [19]; 320 g/ha): 5 (Herbicidal rate of 90% or more (almost completely withered))
herbicidal effect, F: southern crabgrass (southern crabgrass [20]; [27]): 0 (Herbicidal rate of 5% or less (almost no effect))
N: redroot pigweed, herbicidal effect grade (redroot pigweed [21]; 320 g/ha): 5 (Herbicidal rate of 90% or more (almost completely withered))
herbicidal effect, M: velvetleaf (velvetleaf [22]; [27]): 0 (Herbicidal rate of 5% or less (almost no effect))
herbicidal effect, N: redroot pigweed (redroot pigweed [23]; [27]): 5 (Herbicidal rate of 90% or more (almost completely withered))
herbicidal effect, G: green foxtail (green foxtail [24]; [27]): 0 (Herbicidal rate of 5% or less (almost no effect))
herbicidal effect, R: persian speedwell (persian speedwell [25]; [27]): 3 (Herbicidal rate of 40% or more and less than 70%)
